In patent publication US20050256003A1, “Novel herbicides” (priority 2002, published 2005):

How the values were obtained:
Type in all cases: in vivo
[1] = system: selected test plants; test: Post-emergence action in a different test arrangement (Table B3); set-up: key to Post-emergence action (different test arrangement), Nasturtium / Post-emergence action (different test arrangement), Stellaria / Post-emergence action (different test arrangement), Solanum: 10=total damage; 0=no action; Ratings of from 10 to 7 (especially from 10 to 8) indicate good to very good herbicidal action; conditions: 250 g a.i./ha
[2] = system: monocotyledonous and dicotyledonous test plants; test: Herbicidal action prior to emergence of the plants (pre-emergence action); set-up: key: 10=total damage; 0=no action; Ratings of from 10 to 7 (especially from 10 to 8) indicate good to very good herbicidal action; conditions: 250 g a.i./ha, pre-emergence spray, evaluated after 3 weeks, scale 10=total damage, 0=no action
Description: Herbicidal Action Prior to Emergence of the Plants (Pre-Emergence Action)
Monocotyledonous and dicotyledonous test plants are sown in standard soil in plastic pots Immediately after sowing, the test compounds, in the form of an aqueous suspension (prepared from a 25% wettable powder (Example F3, b) according to WO 97/34485) or in the form of an emulsion (prepared from a 25% emulsifiable concentrate (Example F1, c)), are applied by spraying in a concentration corresponding to 125 g or 250 g of active ingredient/ha (500 litres of water/ha). The test plants are then grown in a greenhouse under optimum conditions. After a test duration of 3 weeks, the test is evaluated in accordance with a scale of nine ratings (10=total damage, 0=no action). Ratings of from 10 to 7 (especially from 10 to 8) indicate good to very good herbicidal action.

[3] = system: monocotyledonous and dicotyledonous test plants; test: Post-emergence herbicidal action; set-up: key: 10=total damage; 0=no action; Ratings of from 10 to 7 (especially from 10 to 8) indicate good to very good herbicidal action; conditions: 250 g a.i./ha, about 18 days, rating 0-10
Procedure: Post-Emergence Herbicidal Action
In a greenhouse, monocotyledonous and dicotyledonous test plants are grown in standard soil in plastic pots and at the 4- to 6-leaf stage are sprayed with an aqueous suspension of the test compounds of formula I prepared from a 25% wettable powder (Example F3, b) according to WO 97/34485) or with an emulsion of the test compounds of formula I prepared from a 25% emulsifiable concentrate (Example F1, c) according to WO 97/34485), in a concentration corresponding to 125 g or 250 g of active ingredient/ha (500 litres of water/ha). The test plants are then grown on in a greenhouse under optimum conditions. After a test duration of about 18 days, the test is evaluated in accordance with a scale of nine ratings (10=total damage, 0=no action). Ratings of from 10 to 7 (especially from 10 to 8) indicate good to very good herbicidal action.

| SMILES | Post-emergence action (different test arrangement), Amaranthus [1] | Post-emergence action (different test arrangement), Nasturtium [1] | Post-emergence action (different test arrangement), Solanum [1] | Post-emergence action (different test arrangement), Stellaria [1] | Pre-emergence action: Abutilon (rating) [2] | Pre-emergence action: Amaranthus (rating) [2] | Pre-emergence action: Chenopodium (rating) [2] | Pre-emergence action: Cyperus (rating) [2] | Pre-emergence action: Echinochloa (rating) [2] | Pre-emergence action: Panicum (rating) [2] | Pre-emergence action: Scirpus (rating) [2] | Pre-emergence action: Sida (rating) [2] | Post-emergence action, Amaranthus [3] | Post-emergence action, Chenopodium [3] | Post-emergence action, Echinochloa [3] | Post-emergence action, Euphorbia [3] | Post-emergence action, Ipomea [3] | Post-emergence action, Sinapis [3] | Post-emergence action, Stellaria [3] | Post-emergence action, Xanthium [3] |
| --- | --- | --- | --- | --- | --- | --- | --- | --- | --- | --- | --- | --- | --- | --- | --- | --- | --- | --- | --- | --- |
| Cc1nc(C)n(Cc2nc(C(F)(F)F)ccc2C(=O)C2=C(O)CCCC2=O)c(=O)c1Cl [Compound A1.209] | 7 | 9 | 9 | 7 | – | – | – | – | – | – | – | – | – | – | – | – | – | – | – | – |
| CC1CCN(Cc2nc(C(F)(F)F)ccc2C(=O)C2=C(O)CCCC2=O)C1=O (centres unmarked) [Compound A1.222] | 9 | 10 | 9 | 9 | – | – | – | – | – | – | – | – | – | – | – | – | – | – | – | – |
| COc1nn(Cc2nc(C(F)(F)F)ccc2C(=O)C2=C(O)CCCC2=O)c(=O)s1 [Compound A1.091] | – | – | – | – | 10 | 8 | 9 | 8 | 9 | 4 | 9 | 7 | 9 | 10 | 9 | 8 | 9 | 8 | 10 | 9 |
| CC1CCN(Cc2nc(C(F)(F)F)ccc2C(=O)c2cnn(C)c2O)C1=O (centres unmarked) [Compound B1.226] | 8 | 10 | 9 | 9 | – | – | – | – | – | – | – | – | – | – | – | – | – | – | – | – |
| Cc1nn(Cc2nc(C(F)(F)F)ccc2C(=O)C2=C(O)CCCC2=O)c(=O)s1 [Compound A1.079] | – | – | – | – | 10 | 4 | 8 | 8 | 5 | 9 | 10 | 10 | 9 | 9 | 7 | 8 | 8 | 9 | 9 | 7 |
| O=C1CCCC(O)=C1C(=O)c1ccc(C(F)(F)F)nc1CN1CCCC1=O [Compound A1.219] | 9 | 10 | 9 | 10 | – | – | – | – | – | – | – | – | – | – | – | – | – | – | – | – |
| Cn1ncc(C(=O)c2ccc(C(F)(F)F)nc2CN2CCCC2=O)c1O [Compound B1.223] | 8 | 10 | 9 | 10 | – | – | – | – | – | – | – | – | – | – | – | – | – | – | – | – |
| CC(C)N1CC(=O)N(Cc2nc(C(F)(F)F)ccc2C(=O)C2=C(O)CCCC2=O)C1=O [Compound A1.175] | 7 | 8 | 9 | 7 | – | – | – | – | – | – | – | – | – | – | – | – | – | – | – | – |
| COc1nn(Cc2nc(C(F)(F)F)ccc2C(=O)C2=C(O)CCCC2=O)c(=O)n1C [Compound A1.025] | 9 | 9 | 9 | 9 | – | – | – | – | – | – | – | – | – | – | – | – | – | – | – | – |
| Cn1ncc(C(=O)c2ccc(C(F)(F)F)nc2CN2CCC2=O)c1O [Compound B1.225] | 8 | 10 | 9 | 10 | – | – | – | – | – | – | – | – | – | – | – | – | – | – | – | – |
| CN1CCN(Cc2nc(C(F)(F)F)ccc2C(=O)C2=C(O)CCCC2=O)C1=O [Compound A1.213] | 9 | 9 | 9 | 9 | – | – | – | – | – | – | – | – | – | – | – | – | – | – | – | – |
| Cc1nn(Cc2nc(C(F)(F)F)ccc2C(=O)C2=C(O)C(C)(C)C(=O)C(C)(C)C2=O)c(=O)o1 [Compound A8.008] | – | – | – | – | 10 | – | 10 | 0 | 10 | 10 | 0 | 10 | 9 | 8 | 8 | 8 | 9 | 7 | 6 | 9 |
| Cc1nn(CCOCc2nc(C(F)(F)F)ccc2C(=O)C2=C(O)C3CCC(C3)C2=O)c(=O)o1 (centres unmarked) [Compound A6.100] | – | – | – | – | 10 | 10 | 10 | 6 | 10 | 10 | 10 | 10 | 9 | 10 | 7 | 7 | 9 | 8 | 9 | 7 |
| COc1nn(Cc2nc(C(F)(F)F)ccc2C(=O)c2cnn(C)c2O)c(=O)s1 [Compound B1.096] | – | – | – | – | 10 | 10 | 10 | 7 | – | 7 | 7 | 7 | 7 | 10 | 6 | 7 | 7 | 9 | 8 | 8 |
| CN1CCN(Cc2nc(C(F)(F)F)ccc2C(=O)c2cnn(C)c2O)C1=O [Compound B1.211] | 9 | 10 | 9 | 8 | – | – | – | – | – | – | – | – | – | – | – | – | – | – | – | – |
| CC(C)N1CC(=O)N(Cc2nc(C(F)(F)F)ccc2C(=O)c2cnn(C)c2O)C1=O [Compound B1.170] | – | – | – | – | 9 | 9 | 10 | 8 | 9 | 9 | 9 | 9 | 9 | 9 | 9 | 7 | 0 | 9 | 9 | 6 |
